The text below walks through data of US5317019A, “Inhibition of interleukin-1 and tumor necrosis factor production by monocytes and/or macrophages” (priority 1991, dated 1994).

The subject of experiment [1] is IL-1 production by human monocytes. The note with it: literature (Lee et al.); in words; cited from earlier work.
The test system of another experiment is 5-lipoxygenase. The note with it: literature (Lee et al.); cited from earlier work.
Another experiment concerns cyclooxygenase. The settings on record: literature (Lee et al.); cited from earlier work.
Experiment [2] deals with arachidonic acid-induced inflammation. The settings on record: literature (Griswold et al.); cited from earlier work.
Experiment [3] relates to IL-1 production by human monocytes. Nature of the experiment: In vitro IL-1 production by LPS-stimulated human monocytes. Format: cell-based. The note with it: Homo sapiens, Monocyte; Table 1; LPS 50 ng/ml, 24 h; read-out: IC50, effect on LPS-stimulated IL-1 production by human monocytes. How it is done: Bacterial lipopolysaccharide (LPS) was used to induce IL-1 production by human peripheral blood monocytes. IL-1 activity was measured by its ability to stimulate a Interleukin 2 (IL-2) producing cell line […] to secrete IL-2, in concert with A23187 ionophore, according to the method of Simon et al., J. Immunol. […] The cells were allowed to adhere for 2 hours, after which time non-adherent cells were removed by gentle washing. […] At the end of the incubation period, culture supernatants were removed and clarified of cells and all debris.

The test system of experiment [4] is arachidonic acid-induced mouse ear swelling. Nature of the experiment: Arachidonic acid-induced mouse ear swelling (p.o.). It is filed as in vivo. The note with it: 50 mg/kg p.o.; *** p less than 0.001. Here is the method: ^a Mouse ear edema was measured as described in Griswold et al.,
Inflammation, II(2), 189-199 (1987), the disclosure of which is hereby
incorporated by reference.

Experiment [5] relates to TNF production by human monocytes. Nature of the experiment: In vitro TNF production by LPS-stimulated human monocytes (ELISA). It is filed as cell-based. The note with it: Homo sapiens, Monocyte; Table B; LPS 50 ng/ml, 24 h; read-out: IC50, LPS induced TNF human monocyte data. Here is the method: The effects of the compounds enumerated above on the in vitro production of TNF by human monocytes was examined using the following protocol.
Bacterial lipopolysaccharide (LPS) was used to induce TNF production by human peripheral blood monocytes. TNF activity was measured by a modification of Winston et al., ELISA, described below. […] The cells were allowed to adhere for 2 hours, after which time non-adherent cells were removed by gentle washing. […] At the end of the incubation period, culture supernatants were removed and clarified of cells and all debris. Culture supernatants were immediately assayed for TNF levels in the manner described below.
The Elisa employes a murine monoclonal anti-human TNF antibody, described below, as the capture antibody and a polyclonal rabbit anti-human TNF, described below, as the second antibody. […] TNF levels in samples were calculated from a standard curve genereated with recombinant human TNF produced in E. Coli (obtained from SmithKIine Beecham Pharmaceuticals, King of Prussia, Pa., USA).
Polyclonal rabbit anti-human TNF antibodies were prepared by repeated immunization of New Zeland White (NZW) rabbits with recombinant human TNF emulsified in complete Freund's adjuvant (DEFCO, Ill., USA).

The subject of experiment [6] is serum TNF in P. acnes-sensitized mice. As to the kind of experiment: P. acnes/LPS endotoxin shock model, serum TNF. Format: in vivo, mouse (C57BL/6). The note with it: P. acnes/LPS treated mice, oral dosage, FIG. 1. The text has this:
(§1) Two models of endotoxin shock have been utilized to determine in vivo TNF activity and are described below. The actual protocol used in the models is described in Utility Model Examples A and B set out below, i.e. P. acnes model and LPS-GAL model.
Endotoxin Shock in P. acnes-Sensitized Mice
(§2) This model is a modification of the previously described protocol for the in vivo induction of TNF as described in Haranaka et al., Cancer Immunol Immunother. 18:81-90, (1984). Treatment with Proprionibacterium Acnes (P. acnes) (1 mg/animal i.p.) renders mice susceptible to the lethal effects of LPS injected 10 days later.
P. acnes was purchased from Burroughs Wellcome (Triangle Park, N.C., USA), and […] of the heat-killed bacteria was administered in 0.5 ml pyrogen-free saline by intraperitoneal (i.p.) injection to male C57BL/6 mice, obtained from Charles River Laboratories (Stone Ridge, N.Y., USA) of 6-12 weeks of age. […] The survival of animals was monitored for 1 week.
Plasma levels of TNF were measured using a modification of the basic sandwich ELISA method described in Winston et al., Current Protocols in Molecular Biology, Pg. […] TNF levels in rat samples were calculated from a standard curve generated with recombinant murine TNF (Genzyme, Boston, Mass., USA). TNF levels determined by ELISA correlated with levels detected by the L929 bioassay of Ruff et. al., J. Immunol. […]

For experiment [7], the system named is endotoxin shock in D-gal-sensitized mice. As to the kind of experiment: LPS-GAL endotoxin shock model (D-gal-sensitized mice). Format: in vivo, mouse (C57BL/6).
Source text: as §1
Endotoxin Shock in D-gal-Sensitized Mice
The protocol used to test the compound of the method of the subject invention was essentially as has been described in Galanos et al., Proc. Nat'l Acad. Sci USA, 76:5939-43 (1979) whose disclosure is herein incorporated by reference. Briefly, D-gal […] sensitizes various strains of mice to the lethal effects of endotoxin. The administration of D-gal (300-500 mg/kg) intravenously (i.v.) sensitizes the mice to doses of Lipopolysaccharide(LPS ) as low as 0.1 mg. […]
Plasma levels of TNF were measured using a modification of the basic sandwich ELISA method described in Winston et al., Current Protocols in Molecular Biology, Pg. […] TNF levels in rat samples were calculated from a standard curve generated with recombinant murine TNF (Genzyme, Boston, Mass., USA). TNF levels determined by ELISA correlated with levels detected by the L929 bioassay of Ruff et. al., J. Immunol. […] The ELISA detected levels of TNF down to 25 pg/ml.

The subject of another experiment is endotoxin shock in mice. As to the kind of experiment: In vivo endotoxin shock models (P. acnes and/or LPS-GAL). More on the design: species or system mouse (C57BL/6). The note with it: one or both in vivo models.
Source text: as §1
The protocol used to test the compound of the method of the subject invention was essentially as has been described in Galanos et al., Proc. Nat'l Acad. Sci USA, 76:5939-43 (1979) whose disclosure is herein incorporated by reference. Briefly, D-gal […] sensitizes various strains of mice to the lethal effects of endotoxin. The administration of D-gal (300-500 mg/kg) intravenously (i.v.) sensitizes the mice to doses of Lipopolysaccharide(LPS ) as low as 0.1 mg. Briefly, male C57BL/6 mice, obtained from Charles River Laboratories (Stone Ridge, N.Y., USA) of 6-12 weeks of age were injected i.v. with 0.1 mg of LPS from Salmonella typhosa (Difco Laboratories, Detroit, Mich., USA) admixed with D(+)-gal (Sigma; 500 mg/kg) in 0.20-0.25 ml pyrogen-free saline. Compounds to be tested were administered at various times prior to or following the i.v. injection of LPS/D-gal. In this model, the control animals usually die 5-6 hr. following the injection of LPS, although on occasion deaths are seen between 24 and 48 hr.
as §2
P. acnes was purchased from Burroughs Wellcome (Triangle Park, N.C., USA), and […] of the heat-killed bacteria was administered in 0.5 ml pyrogen-free saline by intraperitoneal (i.p.) injection to male C57BL/6 mice, obtained from Charles River Laboratories (Stone Ridge, N.Y., USA) of 6-12 weeks of age. Ten days later, the mice were injected i.v. with 1 mg LPS in 0.25 ml saline. Compounds to be tested were administered at various times prior to or following the injection of LPS. The survival of animals was monitored for 1 week.
Plasma levels of TNF were measured using a modification of the basic sandwich ELISA method described in Winston et al., Current Protocols in Molecular Biology, Pg. 11.2.1, Ausubel et al., Ed. (1987) John Wiley and Sons, New York, USA. The Elisa employed a hampster monoclonal anti-mouse TNF (Genzyme, Boston, Mass., USA ) as the capture antibody and a polyclonal rabbit anti-murine TNF (Genzyme, Boston, Mass., USA ) as the detecting antibody. TNF levels in rat samples were calculated from a standard curve generated with recombinant murine TNF (Genzyme, Boston, Mass., USA). TNF levels determined by ELISA correlated with levels detected by the L929 bioassay of Ruff et. al., J. Immunol. 125:1671-1677 (1980), with 1 Unit of activity in the bioassay corresponding to 70 picograms (pg) of TNF in the ELISA. The ELISA detected levels of TNF down to 25 pg/ml.

Some results are limits rather than exact numbers.

Turning to `Fc1ccc(-c2nc3n(c2-c2ccncc2)CCS3)cc1` [5-(4-pyridyl)-6(4-fluorophenyl)-2,3-dihydroimidazo(2,1-b)thiazole], in [1], the “Inhibition of IL-1 production by LPS-stimulated human monocytes” value is given as “potent inhibitor of IL-1 production”. Besides, the “Inhibition of 5-lipoxygenase-mediated arachidonate metabolism” value in the experiment on 5-lipoxygenase is “inhibits”. In addition, in the experiment on cyclooxygenase, the “Inhibition of cyclooxygenase-mediated arachidonate metabolism” value is on record as “inhibits”. Further, in [2], the “Effects on the edematous and cellular component of arachidonic acid-induced inflammation” value is reported as “inhibitory effects”.
One may read the IC50 as the midpoint of a concentration-inhibition curve. Take `CSc1ccc(-c2nc3n(c2-c2ccncc2)CCC3)cc1` [Compound 1, 2-(4-methylthiophenyl)-3-(4-pyridyl)-6,7-dihydro-[5H]-pyrrolo-[1,2-a-]-imidazole]: the IC50 in [3] was 2 µM; in experiment [5] it was 1 µM. In addition, the “Percent inhibition of arachidonic acid-induced mouse ear swelling” value (shortened to “Percent inhibition”) in [4] was 56%.
Turning to `C[S+]([O-])c1ccc(-c2nc3n(c2-c2ccncc2)CCC3)cc1` (stereo not drawn) [Compound 2, 2-(4-methylsulfinylphenyl)-3-(4-pyridyl)-6,7-dihydro-[5H]-pyrrolo-[1,2-a]-imidazole], the concentration for half-maximal inhibition (IC50) in experiment [3] is greater than 10 µM. For the same compound, the “Percent inhibition” value in [4] came to 44%. Also, the half-maximal inhibitory concentration (IC50) in [5] is greater than 10 µM. Also, the “Reduction in serum / in vivo TNF levels” value in experiment [6] is “decreased levels of in vivo TNF relative to increased oral dosage”. Further, in experiment [7] (100 mg/kg, FIG. 3), the “Reduction of serum TNF levels” value was “reduction of serum TNF levels”. The “Survival rate of animals with endotoxic shock” value in experiment [7] (FIG. 4, control group 30%) amounted to 100%. Besides, in the experiment with endotoxin shock in mice, the “Inhibition of in vivo TNF levels / in vivo activity” value is given as “in vivo activity” and the “Protection from lethal effects of endotoxin shock” value (from here on “Protection from lethal effects”) is given as “protection from the lethal effects of endotoxin shock”.
Consider `CCSc1ccc(-c2nc3n(c2-c2ccncc2)CCC3)cc1` [Compound 3], for which the IC50 in [3] came to 2 µM. Also, in experiment [4], the “Percent inhibition” value stood at 56%.
Take `CC[S+]([O-])c1ccc(-c2nc3n(c2-c2ccncc2)CCC3)cc1` (stereo not drawn) [Compound 4]: the half-maximal inhibitory concentration (IC50) in [3] was greater than 10 µM. Also, the “Percent inhibition” value in experiment [4] came out at 41%. Further, the IC50 in experiment [5] was 7 µM. Also, in the experiment with endotoxin shock in mice, the “Inhibition of in vivo TNF levels / in vivo activity” value is given as “inhibited in vivo TNF levels” and the “Protection from lethal effects” value is listed as “protected the animals from endotoxic induced shock”.
The corresponding values for `CSc1ccc(-c2nc3n(c2-c2ccnc(C)c2)CCC3)cc1` [Compound 5, 2-(4-methylthiophenyl)-3-(4-(2-methyl)pyridyl)-6,7-dihydro-[5H]-pyrrolo-[1,2-a-]-imidazole] are 2.7 µM, 59%, 7 µM, “inhibited in vivo TNF levels” and “protected the animals from endotoxic induced shock”.
Take `Cc1cc(-c2c(-c3ccc([S+](C)[O-])cc3)nc3n2CCC3)ccn1` (stereo not drawn) [Compound 6, 2-(4-methylsulfinylphenyl)-3-(4-(2-methyl)-pyridyl)-6,7-dihydro-[5H]-pyrrolo-[1,2-a]-imidazole]: the IC50 in experiment [3] was greater than 10 µM. In experiment [4], the “Percent inhibition” value is recorded as 59%.
On to `O=S1(=O)CCn2c1nc(-c1ccc(F)cc1)c2-c1ccncc1` [Compound J, 6-(4-Fluorophenyl)-5-(4-pyridyl)-2,3-dihydroimidazo[2,1-b]thiazole-1,1-dioxide], for which the IC50 in experiment [5] was found to be 9 µM. In addition, in the experiment with endotoxin shock in mice, the “Inhibition of in vivo TNF levels / in vivo activity” value is “inhibited in vivo TNF levels” and the “Protection from lethal effects” value is “protected the animals from endotoxic induced shock”.
`CC(Cc1ccc(O)c(O)c1)C(C)Cc1ccc(O)c(O)c1` (stereo not drawn) [nordihydroguaiaretic acid]: in experiment [1], the “Inhibition of IL-1 production by LPS-stimulated human monocytes” value was “with the exception of nordihydroguaiaretic acid, were inactive”.
